Assay results taken from patent publication US20240185961A1, “DRUG MATERIAL INTERACTIONS USING QUARTZ CRYSTAL MICROBALANCE SENSORS” (Janssen Biotech, Inc., priority 2021, published 2024).

Columns and labels:
Assay type in all cases: physicochemical
[1] = QCM-D adsorption to PVC sensor surface; details: protein 3 formulation, PS20-poor solution, average, 95% CI±33.7%
Description: (§1) The experiments detailed below were informed using quartz sensors coated with various surface compositions such as PVC, PE, PES, PVDF, PC, or PP. These sensors can be pre and post-run cleaned, for example, by way of a 30 min soak in 1% Deconex 11 Solution, a minimum 2 hr soak in DI water (usually overnight), followed by a rinse with DI water and 99% ethanol three times and then blown dry by medical grade nitrogen gas. The sensors were then inserted into a QCM unit as was sample solution, diluent (e.g., NS), and water. Runs were configured and data and procedures were collected. Experimental data was then transformed from frequency to mass data using, for example, the above equations. […]
(§2) In one experimental run, over 60 sensorgrams (i.e., the outputs of the QCM-D instruments) were analyzed and transformed from frequency to mass adsorption data in the aforementioned example. Here the mass adsorbed during the sample period was of primary interest, and the mass during this period was measured by subtracting the average mass recorded and calculated during the diluent period where an ionic liquid had effect on resonance (period 2 above/520 in FIG. 5) from the average mass shift recorded and calculated during the sample period (period 3 above/530 in FIG. 5). […]

[2] = QCM-D adsorption to PES sensor surface; details: protein 3 formulation, PS20-poor solution, average, 95% CI±5.2%
Description: as §1, §2

[3] = QCM-D adsorption, PS20 only runs, PVC and PES sensor surfaces pooled; details: all at the same concentration, protein 3 experiments, 95% CI±19.77 ng/sq cm
Description: as §1, §2

polysorbate 20 [PS20]
PS20 contribution to mass of layer at the surface [1]: 35.56%
PS20 contribution to mass of layer at the surface [2]: 12.22%
average mass contribution, PS20 only runs [3]: 40.20 ng/sq cm
